Measurements published in ChEMBL document CHEMBL1201862, “PubChem BioAssay data set” (2004).
The source made the active and inactive calls.

What was measured:
[1] = cytotoxicity in OV-90 ovarian cancer cells, dose response, PAX8 inhibitor project, cell-based, plate reader, dry powder, SA8 (AID 743149); assay type: functional
[2] = PAX5 activity inhibitors, dose response, selectivity assay for PAX8 inhibitor project, cell-based, plate reader, dry powder samples (AID 743047); assay type: functional;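 further: HEK293 cells carrying a Pax5 driven CD19 promoter luciferase reporter; potency of inhibitors that lower reporter luminescence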
[3] = cytotoxicity in COV434 cells, dose response, cytotoxicity control for PAX8 inhibitor project, cell-based, plate reader, dry powder, SA7 (AID 743145); assay type: functional
[4] = PAX2 cell-based inhibition, dose response, selectivity assay for PAX8 inhibitor project, plate reader, dry powder samples (AID 743048); assay type: functional;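 further: HEK293 cells carrying a WT1 promoter luciferase reporter driven by expressed Pax2; potency is for inhibition of Pax2 driven reporter signal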
Paired box protein Pax-8 = Paired box protein Pax-8 (Homo sapiens, UniProt Q06710); assay: inhibitors of PAX8-driven TPO luciferase reporter, dose response, RMG-I cells, cherry-pick (AID 687027); assay type: functional, cell-based;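 further: luciferase reporter driven by Pax8 target thyroperoxidase promoter measured by SteadyGlo luminescence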
[5] = cytotoxicity dependent on PAX8, dose response, cell-based, plate reader, dry powder (AID 743049); assay type: functional
[6] = cytotoxicity in COV362 ovarian cancer cells, dose response, cytotoxicity control for PAX8 inhibitor project, cell-based, plate reader, dry powder, SA12 (AID 743144); assay type: functional
[7] = NIH:OVCAR-3 ovarian cancer cell cytotoxicity, dose response, PAX8 inhibitor project, plate reader, dry powder samples (AID 743044); assay type: functional, cell-based
[8] = cytotoxicity in OVCAR8 ovarian cancer cells, dose response, PAX8 project, cell-based, plate reader, dry powder samples (AID 743197); assay type: functional; details: OVCAR-8
[9] = A375 melanoma cell cytotoxicity, dose response, counter-screen for MITF inhibitor project, CellTiter-Glo luminescence, dry powder, set 7 (AID 624490); assay type: functional, cell-based; details: A-375
[10] = TRPM1 promoter luciferase reporter signal decrease, dose response, MITF inhibitor project, cell-based, SK-MEL-5, dry powder, set 9 (AID 651588); assay type: functional
[11] = A375 melanoma cell viability loss, dose response, counter-screen for MITF modulator project, CellTiter-Glo luminescence, dry powder, set 9 (AID 651591); assay type: functional, cell-based; details: A-375
[12] = MITF Orthogonal Assay: SK-MEL-5 CTG Assay Measured in Cell-Based System Using Plate Reader - 2084-02_Inhibitor_Dose_DryPowder_Activity_Set5.; assay type: functional
[13] = SK-MEL-5 parental cell viability reduction, dose response, orthogonal assay for MITF inhibitor project, CellTiter-Glo luminescence, dry powder, set 8 (AID 651586); assay type: functional, cell-based
[14] = A375 melanoma cell cytotoxicity, dose response, counter-screen for MITF inhibitor project, CellTiter-Glo luminescence, dry powder, set 6 (AID 624488); assay type: functional, cell-based; details: A-375
[15] = MITF Orthogonal Assay: MALME3 CTG Assay Measured in Cell-Based System Using Plate Reader - 2084-04_Inhibitor_Dose_DryPowder_Activity_Set6.; assay type: functional; details: MALME-3
[16] = SK-MEL-5 parental line viability, dose response, MITF inhibitor project, cell-based, CellTiter-Glo, dry powder, set 6 (AID 624429); assay type: functional
[17] = cytotoxicity in primary human melanocytes, dose response, cytotoxicity control, cell-based, plate reader, dry powder (AID 651920); assay type: functional
[18] = MALME3 melanoma cell viability reduction, dose response, orthogonal assay for MITF inhibitor project, CellTiter-Glo luminescence, dry powder, set 5 (AID 651584); assay type: functional, cell-based; details: MALME-3
[19] = MITF Measured in Cell-Based System Using Plate Reader - 2084-01_Inhibitor_Dose_DryPowder_Activity_Set6.; assay type: functional
[20] = MITF Measured in Cell-Based System Using Plate Reader - 2084-01_Inhibitor_Dose_DryPowder_Activity_Set7.; assay type: functional
[21] = A375 melanoma cell viability loss, dose response, counter-screen for MITF inhibitor project, CellTiter-Glo luminescence, dry powder, set 4 (AID 624364); assay type: functional, cell-based; details: A-375;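 further: A375 melanoma cells are MITF independent so this is a counter screen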
[22] = P. falciparum Dd2 growth inhibitors, dose response, SYBR Green, dry powder samples (AID 1159566); assay type: functional, cell-based;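 further: potency for growth inhibition with lower SYBR green DNA signal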
[23] = P. falciparum Dd2 growth inhibitors, dose response, SYBR Green, dry powder samples, set 9 (AID 1159568); assay type: functional, cell-based
[24] = P. falciparum 3D7-ScDHODH growth inhibitors, dose response, SYBR Green, dry powder samples (AID 1159570); assay type: functional, cell-based;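 further: parasite growth measured after 72 hours of compound exposure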
[25] = P. falciparum Dd2 growth inhibitors, dose response, SYBR Green, cherry-picked samples (AID 1159567); assay type: functional, cell-based
[26] = P. falciparum ATP4 D1247Y mutant growth inhibitors, dose response, NITD609-resistant line, SYBR Green, dry powder (AID 1159571); assay type: functional, cell-based;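 further: parasites synchronized at ring stage by sorbitol before testing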
[27] = T. cruzi growth inhibition in host cells, dose response, cell-based, plate reader, dry powder, set 2 (AID 652275); assay type: functional
[28] = target: RNA-editing ligase 1, mitochondrial (Trypanosoma brucei brucei, UniProt P86926); assay: TbREL1 ligase inhibitors, dose response, biochemical, fluorescence, Trypanosoma brucei (AID 1117295); assay type: functional
[29] = P. falciparum Dd2 blood-stage growth inhibition, dose response, SYBR Green fluorescence, erythrocytes, dry powder, set 2 (AID 1159574); assay type: functional, cell-based
[30] = target: T1, Low molecular weight phosphotyrosine protein phosphatase (Homo sapiens, UniProt P24666); assay: LMPTP phosphatase inhibitors, colorimetric pNPP readout, dose response, orthogonal assay, biochemical, absorbance, pNPP substrate, LMPTP-A isoform, set 2 (AID 743308); assay type: functional
T1 sequence (P24666 whole entry): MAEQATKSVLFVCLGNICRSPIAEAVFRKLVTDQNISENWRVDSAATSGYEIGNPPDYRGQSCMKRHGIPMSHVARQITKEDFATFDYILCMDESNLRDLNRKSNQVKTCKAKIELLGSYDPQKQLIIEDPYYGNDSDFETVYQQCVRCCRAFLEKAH

[31] = target: T1, Low molecular weight phosphotyrosine protein phosphatase; assay: LMPTP phosphatase inhibitors, dose response, biochemical, OMFP substrate, fluorescence intensity, set 2 (AID 743307); assay type: functional
[32] = HeLa 2N DNA content increase, dose response, cell-based, IC50 (AID 1117349); assay type: functional
[33] = HeLa 4N DNA content increase, dose response, cell-based, IC50 (AID 1117351); assay type: functional
cells = assay type: functional, cell-based; details: INS-1E
[34] = Dose-response inhibition of insulin secretion in a rat insulinoma line at 5 mM glucose (AID 1117331); assay type: functional, cell-based; details: INS-1E

RNA-editing ligase 1, mitochondrial, sequence (P86926 whole entry): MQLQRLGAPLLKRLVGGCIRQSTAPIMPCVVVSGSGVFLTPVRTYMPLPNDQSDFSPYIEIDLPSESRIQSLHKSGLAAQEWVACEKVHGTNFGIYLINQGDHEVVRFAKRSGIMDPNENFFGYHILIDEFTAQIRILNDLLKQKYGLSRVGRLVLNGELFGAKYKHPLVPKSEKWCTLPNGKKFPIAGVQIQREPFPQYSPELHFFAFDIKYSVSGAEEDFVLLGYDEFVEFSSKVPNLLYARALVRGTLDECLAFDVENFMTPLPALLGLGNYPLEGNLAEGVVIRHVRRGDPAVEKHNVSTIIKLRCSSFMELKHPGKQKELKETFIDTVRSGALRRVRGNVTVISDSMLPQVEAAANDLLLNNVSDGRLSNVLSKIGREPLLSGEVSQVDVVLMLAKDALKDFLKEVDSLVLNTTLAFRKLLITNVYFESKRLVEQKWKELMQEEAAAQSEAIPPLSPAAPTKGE
Paired box protein Pax-8, sequence (Q06710 whole entry): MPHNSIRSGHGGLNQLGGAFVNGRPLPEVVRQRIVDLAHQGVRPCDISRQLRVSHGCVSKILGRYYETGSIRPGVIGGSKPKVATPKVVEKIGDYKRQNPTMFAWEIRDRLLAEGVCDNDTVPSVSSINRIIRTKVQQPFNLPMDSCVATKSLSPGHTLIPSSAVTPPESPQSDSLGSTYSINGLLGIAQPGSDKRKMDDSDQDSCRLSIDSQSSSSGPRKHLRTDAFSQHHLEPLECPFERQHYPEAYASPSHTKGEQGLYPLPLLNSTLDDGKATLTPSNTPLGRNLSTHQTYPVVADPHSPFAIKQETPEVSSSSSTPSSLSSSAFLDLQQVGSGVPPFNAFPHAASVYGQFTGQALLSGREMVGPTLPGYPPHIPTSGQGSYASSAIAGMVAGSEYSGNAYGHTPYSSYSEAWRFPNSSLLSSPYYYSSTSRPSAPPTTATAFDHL

C[C@H](CO)N1C[C@H](C)[C@@H](CN(C)Cc2ccc(C(F)(F)F)cc2)Oc2ccc(NS(=O)(=O)c3ccccc3)cc2CC1=O
AC50 [1]: 54 µM (active) | AC50 [2]: 23 µM (active) | AC50 [3]: 46.2 µM (active) | AC50 [4]: 21 µM (active) | AC50 (Paired box protein Pax-8): 10.1 µM (active) | AC50 [5]: 53.2 µM (active) | AC50 [6]: > 70 µM (inactive) | AC50 [7]: 51.5 µM (active) | AC50 [8]: > 70 µM (inactive)

COC1=C(NS(=O)(=O)c2ccc(Br)cc2)C(=O)c2ccccc2C1=O
AC50 [9]: > 70 µM (inactive) | AC50 [10]: 38.3 µM (active) | AC50 [11]: > 70 µM (inactive) | AC50 [12]: 12 µM (active) | AC50 [13]: 19.8 µM (active) | AC50 [14]: > 70 µM (inactive) | AC50 [15]: 34.9 µM (active) | AC50 [16]: 21.5 µM (active) | AC50 [17]: > 70 µM (inactive) | AC50 [18]: 34.9 µM (active) | AC50 [19]: 14.8 µM (active) | AC50 [20]: 10.4 µM (active) | AC50 [21]: > 70 µM (inactive)

CC(C)(C)[S+]([O-])N1Cc2cc(C(=O)NCc3ccc4c(c3)OCO4)nc(-c3cccc(-c4cc5ccccc5o4)c3)c2[C@H]1CCO (stereo partly specified)
AC50 [22]: 1.16 µM (active) | AC50 [23]: 2.2 µM (active) | AC50 [24]: 1.46 µM (active) | AC50 [25]: 1.51 µM (active) | AC50 [26]: 1.21 µM (active) | AC50 [27]: 0.361 µM (active)

C#CCOCCOCCOCCNc1nc(N2CCN(C(=O)[C@H](CCCCN)n3cc([C@@H](N)CC(C)C)nn3)CC2)nc(N2CCN(C(=O)[C@H](Cc3cc4ccccc4[nH]3)n3cc([C@@H](N)CC(C)C)nn3)CC2)n1
IC50 [28]: > 96.6 µM (inactive)

COc1cccc(C#Cc2ccc([C@@H]3[C@@H](CO)N4C(=O)CN(C(=O)Cc5ccccc5)C[C@@H]34)cc2)c1
AC50 [29]: 4.88 µM (active)

COc1ccccc1-c1cc(NCCCN2CCCCC2)c2ccccc2n1
IC50 [30]: 7.13 µM (active) | IC50 [31]: 2.87 µM (active)

Cc1ccc(CCn2c3c(c4cc(Cl)ccc42)CN(C)CC3)cn1 [DORASTINE]
IC50 [32]: > 10 µM (inactive) | IC50 [33]: > 10 µM (inactive) | IC50 (cells): > 33.3 µM (inactive) | IC50 [34]: 4.2 µM (active)
